What was measured:
E3 (CUL4) = E3 (CUL4) (Homo sapiens (Human), UniProt Q13619); test: E3 (CUL4) inhibition (Table 1); type: biochemical
Protocol: The reaction was incubated for 5 min at 37° C. […] The reaction was incubated for 5 min at room temperature. In the second step (chase), the completed Cdc34b-Ub thiol ester reaction mixture was combined with one third of the completed mono-ubiquitination mixture. The final volume was adjusted to 10 μl with a mix that contained 50 mM Tris-HCl (pH 7.4), 0.5 mM DTT, 0.1 mg/ml of BSA, 5 mM MgCl2, and 2 mM ATP. Compounds were added where indicated. The chase reaction was incubated for 10 min at 37° C. The reaction products were separated by 4-20% SDS-polyacrylamide gel electrophoresis. The reaction scheme was identical to the one described above for FIGS. 12A-B. […] The reaction products, separated by SDS-PAGE, were visualized and analyzed by phospho-imaging using Typhoon 9500 scanner.

E3 (CUL1) = E3 (CUL1) (Homo sapiens (Human), UniProt Q13616); test: E3 (CUL1) inhibition (Table 1); type: biochemical
Sequence of E3 (CUL1) (Q13616 whole entry): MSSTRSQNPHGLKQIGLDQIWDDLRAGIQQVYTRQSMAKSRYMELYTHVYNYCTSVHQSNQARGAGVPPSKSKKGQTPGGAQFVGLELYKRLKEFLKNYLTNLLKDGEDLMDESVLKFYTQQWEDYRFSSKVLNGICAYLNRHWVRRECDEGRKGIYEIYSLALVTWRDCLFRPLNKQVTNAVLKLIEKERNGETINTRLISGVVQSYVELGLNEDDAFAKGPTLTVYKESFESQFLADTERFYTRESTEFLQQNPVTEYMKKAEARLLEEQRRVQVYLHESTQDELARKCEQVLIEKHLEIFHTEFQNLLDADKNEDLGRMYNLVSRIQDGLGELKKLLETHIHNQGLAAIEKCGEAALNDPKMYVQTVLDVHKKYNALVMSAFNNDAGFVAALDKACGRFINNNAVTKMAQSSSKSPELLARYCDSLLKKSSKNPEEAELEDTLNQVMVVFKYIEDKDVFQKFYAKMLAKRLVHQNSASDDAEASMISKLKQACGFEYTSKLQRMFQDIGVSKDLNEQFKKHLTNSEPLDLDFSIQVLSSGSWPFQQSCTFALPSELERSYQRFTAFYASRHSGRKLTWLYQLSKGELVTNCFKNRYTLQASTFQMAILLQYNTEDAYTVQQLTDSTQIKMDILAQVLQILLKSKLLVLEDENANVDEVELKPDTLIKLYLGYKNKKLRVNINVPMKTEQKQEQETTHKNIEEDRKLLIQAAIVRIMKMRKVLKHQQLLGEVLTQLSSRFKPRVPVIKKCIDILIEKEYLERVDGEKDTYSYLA
Sequence of E3 (CUL1) (P62877 whole entry partner): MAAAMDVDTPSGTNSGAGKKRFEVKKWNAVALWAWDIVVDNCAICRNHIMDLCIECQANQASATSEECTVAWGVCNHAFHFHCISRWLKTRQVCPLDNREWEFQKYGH
Protocol: The reaction mixture (15 μl) was assembled onto a 384-well microtiter plate. […] ATP (0.66 mM) was then added to the mix followed by a brief centrifugation to settle down the mixture. The resulting plate was incubated at 30° C. in the Synergy-H1 reader and the fluorescence signal was monitored. Ubiquitination was quantified based on the ratio of acceptor:donor fluorescence (excitation 515 nm; donor emission 570 nm, acceptor emission 670 nm).

cancer cells = test: Apoptosis, Annexin V flow cytometry; type: cell-based; conditions: Table 1
Protocol: Cells (5×10^4) were seeded 24 hours before compound treatment. Compound was added to the culture media and cells were cultured with the compound for 48 hours. The treated cells were then transferred into 5 ml flow cytometry tubes and the well was washed once with PBS to collect any remaining cells. The cells were then pelleted at 500×g for 5 min with a Beckman CS-6KR centrifuge at 4° C. After removal of supernatant, the cells pellet was washed with Annexin V binding buffer (10 mM Hepes-NaOH, pH 7.4, 150 mM NaCl, 5 mM KCl, 1 mM MgCl2, and 1.8 mM CaCl2). Cells were pelleted once again and incubated in the dark with Annexin V-FITC (2 μg/ml) in binding buffer for 5 min then analyzed using LSRFortessa flow cytometer (BD).

Sequence of E3 (CUL4) (Q13619 whole entry): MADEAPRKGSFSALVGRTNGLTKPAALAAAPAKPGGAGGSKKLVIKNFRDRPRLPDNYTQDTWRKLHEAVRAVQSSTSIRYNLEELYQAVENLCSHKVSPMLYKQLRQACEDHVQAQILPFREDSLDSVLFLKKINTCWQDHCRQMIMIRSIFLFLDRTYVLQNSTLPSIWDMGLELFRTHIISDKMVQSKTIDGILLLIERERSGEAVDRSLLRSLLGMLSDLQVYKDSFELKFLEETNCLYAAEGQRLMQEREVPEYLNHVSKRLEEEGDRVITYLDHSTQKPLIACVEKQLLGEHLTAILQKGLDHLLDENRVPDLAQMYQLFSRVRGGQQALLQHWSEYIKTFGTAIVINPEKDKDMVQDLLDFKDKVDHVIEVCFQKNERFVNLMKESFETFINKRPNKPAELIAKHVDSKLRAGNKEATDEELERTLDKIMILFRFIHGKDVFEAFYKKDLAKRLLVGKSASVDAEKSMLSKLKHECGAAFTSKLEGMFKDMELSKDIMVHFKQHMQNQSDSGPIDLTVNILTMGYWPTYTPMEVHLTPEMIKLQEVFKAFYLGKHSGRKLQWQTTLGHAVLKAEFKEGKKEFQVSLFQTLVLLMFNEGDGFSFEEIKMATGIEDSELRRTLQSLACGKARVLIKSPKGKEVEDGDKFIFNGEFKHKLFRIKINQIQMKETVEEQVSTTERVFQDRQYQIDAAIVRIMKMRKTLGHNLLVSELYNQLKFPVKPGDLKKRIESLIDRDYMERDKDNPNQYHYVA
Sequence of E3 (CUL4) (P62877 whole entry partner): as the sequence (P62877 whole entry partner) above

SMILES | EC50 (E3 (CUL4)) | EC50 (E3 (CUL1)) | E3 (CUL4) Inhibition EC50 (E3 (CUL4)) | EC50 (cancer cells) | E3 (CUL1) Inhibition EC50 (E3 (CUL1)) | Apoptosis EC50 (cancer cells)
CC(=O)Oc1ccc2c(=O)cc(C(F)(F)F)oc2c1OC(C)=O [KH-3-12] | > 75 µM | 32 µM |  |  |  | 
O=c1ccoc2c(O)c(O)ccc12 [KH-3-49] | > 75 µM | 11 µM |  |  |  | 
O=c1cc(C(F)(F)F)oc2c(O)c(O)ccc12 [KH-3-50] |  | 4.9 µM | Inactive |  |  | 
O=c1c(-c2ccnn2Cc2ccccc2)c(C(F)(F)F)oc2c(O)c(O)ccc12 [KH-3-160A] | ~20 µM | 3.4 µM |  | 21 µM |  | 
O=c1c(-c2cnn(-c3ccccc3)c2)c(C(F)(F)F)oc2c(OS(=O)(=O)C(F)(F)F)c(O)ccc12 [KH-4-136] |  |  | Inactive |  |  | Inactive
O=c1c(-c2cnn(-c3ccccc3)n2)c(C(F)(F)F)oc2c(O)c(O)ccc12 [KH-5-09] | > 14 µM |  |  |  |  | 
COc1ccc2c(=O)c(-c3cnn(Cc4ccc(Cl)cc4)c3)c(C(F)(F)F)oc2c1OC [MSSM-RJD-MM-001, 3-(1-(4-chlorobenzyl)-1H-pyrazol-4-yl)-7,8-dimethoxy-2-(trifluoromethyl)-4H-chromen-4-one] | > 10 µM | > 100 µM |  | > 20 µM |  | 
CCCCn1cc(-c2c(C(F)(F)F)oc3c(OC)c(OC)ccc3c2=O)cn1 [MSSM-RJD-MM-002, 3-(1-butyl-1H-pyrazol-4-yl)-7,8-dimethoxy-2-(trifluoromethyl)-4H-chromen-4-one] | > 10 µM | 96 µM |  | > 20 µM |  | 
COc1ccc2c(=O)c(-c3cnn(C(C)C)c3)c(C(F)(F)F)oc2c1OC [MSSM-RJD-MM-003, 3-(1-isopropyl-1H-pyrazol-4-yl)-7,8-dimethoxy-2-(trifluoromethyl)-4H-chromen-4-one] | > 10 µM | > 100 µM |  | > 20 µM |  | 
CCCn1cc(-c2c(C(F)(F)F)oc3c(OC)c(OC)ccc3c2=O)cn1 [MSSM-RJD-MM-004] | > 10 µM | > 100 µM |  | > 20 µM |  | 
CCn1cc(-c2c(C(F)(F)F)oc3c(OC)c(OC)ccc3c2=O)cn1 [MSSM-RJD-MM-005] | > 10 µM | > 100 µM |  | > 20 µM |  | 
CCCCn1cc(-c2c(C(F)(F)F)oc3c(O)c(O)ccc3c2=O)cn1 [MSSM-RJD-MM-007, 3-(1-butyl-1H-pyrazol-4-yl)-7,8-dihydroxy-2-(trifluoromethyl)-4H-chromen-4-one] | > 10 µM | 3.8 µM |  | > 20 µM |  | 
COc1ccc2c(=O)c(-c3cnn(Cc4ccc(F)cc4)c3)c(C(F)(F)F)oc2c1OC [MSSM-RJD-MM-010, 3-(1-(4-fluorobenzyl)-1H-pyrazol-4-yl)-7,8-dimethoxy-2-(trifluoromethyl)-4H-chromen-4-one] | > 10 µM | > 100 µM |  | > 20 µM |  | 
COc1ccc2c(=O)c(-c3cnn(Cc4ccc(C(F)(F)F)cc4)c3)c(C(F)(F)F)oc2c1OC [MSSM-RJD-MM-011, 7,8-dimethoxy-2-(trifluoromethyl)-3-(1-(4-(trifluoromethyl)benzyl)-1H-pyrazol-4-yl)-4H-chromen-4-one] | > 10 µM | > 100 µM |  | > 20 µM |  | 
COc1ccc2c(=O)c(-c3cnn(Cc4ccccc4Cl)c3)c(C(F)(F)F)oc2c1OC [MSSM-RJD-MM-012, 3-(1-(2-chlorobenzyl)-1H-pyrazol-4-yl)-7,8-dimethoxy-2-(trifluoromethyl)-4H-chromen-4-one] | > 10 µM | > 100 µM |  | > 20 µM |  | 
COc1ccc2c(=O)c(-c3cnn(Cc4ccccc4F)c3)c(C(F)(F)F)oc2c1OC [MSSM-RJD-MM-016, 3-(1-(2-fluorobenzyl)-1H-pyrazol-4-yl)-7,8-dimethoxy-2-(trifluoromethyl)-4H-chromen-4-one] | > 10 µM | > 100 µM |  | > 20 µM |  | 
COc1ccc2c(=O)c(-c3cnn(Cc4cccc(Cl)c4)c3)c(C(F)(F)F)oc2c1OC [MSSM-RJD-MM-017, 3-(1-(3-chlorobenzyl)-1H-pyrazol-4-yl)-7,8-dimethoxy-2-(trifluoromethyl)-4H-chromen-4-one] | > 10 µM | 82 µM |  |  |  | 
COc1cccc(Cn2cc(-c3c(C(F)(F)F)oc4c(OC)c(OC)ccc4c3=O)cn2)c1 [MSSM-RJD-MM-018, 7,8-dimethoxy-3-(1-(3-methoxybenzyl)-1H-pyrazol-4-yl)-2-(trifluoromethyl)-4H-chromen-4-one] | > 10 µM | > 100 µM |  |  |  | 
COc1ccc2c(=O)c(-c3cnn(Cc4cccc(C)c4)c3)c(C(F)(F)F)oc2c1OC [MSSM-RJD-MM-019] | > 10 µM | 92 µM |  |  |  | 

Continued, values first:

EC50 (E3 (CUL4)) | EC50 (E3 (CUL1)) | E3 (CUL4) Inhibition EC50 (E3 (CUL4)) | EC50 (cancer cells) | E3 (CUL1) Inhibition EC50 (E3 (CUL1)) | Apoptosis EC50 (cancer cells) | SMILES
> 14 µM | 9.3 µM |  | 6 µM |  |  | O=c1c(-c2cnn(-c3ccc(C(F)(F)F)cc3)c2)c(C(F)(F)F)oc2c(O)c(O)ccc12 [KH-3-150]
~14 µM | 13 µM |  | 5 µM |  |  | O=c1c(-c2cnn(-c3cccc(Cl)c3)c2)c(C(F)(F)F)oc2c(O)c(O)ccc12 [KH-3-151]
> 14 µM | 9 µM |  | 30 µM |  |  | N#Cc1ccc(-n2cc(-c3c(C(F)(F)F)oc4c(O)c(O)ccc4c3=O)cn2)cc1 [KH-3-152]
> 14 µM | 8 µM |  |  |  |  | O=c1c(-c2cnn(-c3ccc(F)cc3)c2)c(C(F)(F)F)oc2c(O)c(O)ccc12 [KH-3-174]
~14 µM | 5 µM |  | 9 µM |  |  | O=c1c(-c2cnn(-c3cccc(F)c3)c2)c(C(F)(F)F)oc2c(O)c(O)ccc12 [KH-4-41]
 | 10 µM | Inactive |  |  |  | NC(=O)c1ccccc1-n1cc(-c2c(C(F)(F)F)oc3c(O)c(O)ccc3c2=O)cn1 [KH-4-44]
> 14 µM | 8 µM |  |  |  |  | O=c1c(-c2cnn(-c3cccc(C(F)(F)F)c3)c2)c(C(F)(F)F)oc2c(O)c(O)ccc12 [KH-4-65]
> 14 µM | 9 µM |  |  |  |  | N#Cc1cccc(-n2cc(-c3c(C(F)(F)F)oc4c(O)c(O)ccc4c3=O)cn2)c1 [KH-4-66]
 |  | Inactive |  | Inactive |  | O=c1c(-c2cnn(-c3cccnc3)c2)c(C(F)(F)F)oc2c(O)c(O)ccc12 [KH-4-67]
> 14 µM |  |  |  |  | Inactive | Nc1cccc(-n2cc(-c3c(C(F)(F)F)oc4c(O)c(O)ccc4c3=O)cn2)c1 [KH-4-78]
~14 µM |  |  | 19 µM |  |  | Cc1cccc(-n2cc(-c3c(C(F)(F)F)oc4c(O)c(O)ccc4c3=O)cn2)c1 [KH-4-79]
> 14 µM |  |  | 26 µM |  |  | O=c1c(-c2cnn(-c3ccccc3Cl)c2)c(C(F)(F)F)oc2c(O)c(O)ccc12 [KH-4-88]
~10 µM |  |  | 9 µM |  |  | O=c1c(-c2cnn(-c3ccc(Cl)cc3Cl)c2)c(C(F)(F)F)oc2c(O)c(O)ccc12 [KH-4-98]
~10 µM |  |  | 9 µM |  |  | O=c1c(-c2cnn(-c3ccc(Cl)c(Cl)c3)c2)c(C(F)(F)F)oc2c(O)c(O)ccc12 [KH-4-99]
~10 µM |  |  | 6 µM |  |  | O=c1c(-c2cnn(-c3cc(Cl)cc(Cl)c3)c2)c(C(F)(F)F)oc2c(O)c(O)ccc12 [KH-4-116]
> 10 µM | 7.6 µM |  | > 20 µM |  |  | O=c1c(-c2cnn(Cc3ccc(Cl)cc3)c2)c(C(F)(F)F)oc2c(O)c(O)ccc12 [MSSM-RJD-MM-006, 3-(1-(4-chlorobenzyl)-1H-pyrazol-4-yl)-7,8-dihydroxy-2-(trifluoromethyl)-4H-chromen-4-one]
> 10 µM | 4 µM |  | > 20 µM |  |  | CCCn1cc(-c2c(C(F)(F)F)oc3c(O)c(O)ccc3c2=O)cn1 [MSSM-RJD-MM-008, 7,8-dihydroxy-3-(1-propyl-1H-pyrazol-4-yl)-2-(trifluoromethyl)-4H-chromen-4-one]
> 10 µM | 6 µM |  | > 20 µM |  |  | CCn1cc(-c2c(C(F)(F)F)oc3c(O)c(O)ccc3c2=O)cn1 [MSSM-RJD-MM-009, 3-(1-ethyl-1H-pyrazol-4-yl)-7,8-dihydroxy-2-(trifluoromethyl)-4H-chromen-4-one]
> 30 µM | 7.2 µM |  | > 20 µM |  |  | O=c1c(-c2cnn(Cc3ccc(F)cc3)c2)c(C(F)(F)F)oc2c(O)c(O)ccc12 [MSSM-RJD-MM-013, 3-(1-(4-fluorobenzyl)-1H-pyrazol-4-yl)-7,8-dihydroxy-2-(trifluoromethyl)-4H-chromen-4-one]
~10 µM | 5.4 µM |  | ~8 µM |  |  | O=c1c(-c2cnn(Cc3ccc(C(F)(F)F)cc3)c2)c(C(F)(F)F)oc2c(O)c(O)ccc12 [MSSM-RJD-MM-014, 7,8-dihydroxy-2-(trifluoromethyl)-3-(1-(4-(trifluoromethyl)benzyl)-1H-pyrazol-4-yl)-4H-chromen-4-one]
> 10 µM | 8.2 µM |  | > 20 µM |  |  | O=c1c(-c2cnn(Cc3ccccc3Cl)c2)c(C(F)(F)F)oc2c(O)c(O)ccc12 [MSSM-RJD-MM-015, 3-(1-(2-chlorobenzyl)-1H-pyrazol-4-yl)-7,8-dihydroxy-2-(trifluoromethyl)-4H-chromen-4-one]

Reference: patent US20240174649A1, “CULLIN-RING E3 UBIQUITIN LIGASE 4 INHIBITOR COMPOUNDS AND METHODS OF THEIR USE” (ICAHN SCHOOL OF MEDICINE AT MOUNT SINAI, priority 2021, published 2024)
